Measurements from patent US20250073241A1, “Combination Therapies Using PRMT5 Inhibitors for the Treatment of Cancer” (MIRATI THERAPEUTICS, INC., priority 2021, published 2025).

Tests used:
Assay type in all cases: in vivo, mice
HCC4006 xenograft tumors = assay: HCC4006 lung tumor xenograft, Example 3; conditions: Palbociclib 130 mg/kg PO QD
Experimental: (§1) The compound of the disclosure was evaluated in several different lung tumor xenograft models: HCC4006, SW1573 PRMT5-044, H1650, and A549 PRMT-034. […] 2021, incorporated by reference in its entirety.

[1] = test system: A549 PRMT-034 xenograft tumors; assay: A549 PRMT-034 lung tumor xenograft, Example 6; conditions: Palbociclib 130 mg/kg PO QD
Experimental: as §1

H1650 xenograft tumors = assay: H1650 lung tumor xenograft, Example 5; conditions: Palbociclib 130 mg/kg PO QD
Experimental: as §1

MKN45 xenograft tumors = assay: MKN45 gastric tumor xenograft, Example 9; conditions: Palbociclib 130 mg/kg PO QD
Experimental: Immunodeficient female nu/nu mice were implanted with 5×10^6 LU99 lung cancer cells in 50% Matrigel. Tumors were measured using calipers until they reached approximately 150-200 mm^3. Animals were randomized to receive A) vehicle (0.5% methylcellulose (4000 cps)/0.2% Tween80 in water), B) a PRMT5 inhibitor, C) CDK4/6 inhibitor, or D) the PRMT5 inhibitor and CDK4/6 inhibitor, all administered orally (PO) for 21 days. Tumor volume was measured twice a week (n=5/treatment group). Average tumor volume and standard error of the mean was calculated and plotted at each study day in GraphPad.

[2] = test system: PANC-05-04 xenograft tumors; assay: PANC-05-04 pancreatic tumor xenograft, Example 7; conditions: Palbociclib 130 mg/kg PO QD
Experimental: (§2) The compound of the disclosure was evaluated in a couple of different pancreatic tumor xenograft models: PANC-05-04 and BXPC-3.

BXPC-3 xenograft tumors = assay: BXPC-3 pancreatic tumor xenograft, Example 8; conditions: Palbociclib 130 mg/kg PO QD
Experimental: as §2

[3] = test system: KRAS^G12C and CDKN2A/MTAP^DEL lung tumor xenograft LU99 model; assay: LU99 lung tumor xenograft, Example 2 (MRTX7477 / palbociclib); conditions: palbociclib 130 mg/kg PO QD
Source text: (§3) 2021, incorporated by reference in its entirety.

[4] = test system: KRAS^G12C and CDKN2A/MTAP^DEL lung tumor xenograft LU99 model; assay: LU99 lung tumor xenograft, Example 1 (MRTX9768 / palbociclib); conditions: palbociclib 130 mg/kg PO QD
Experimental: as §3
The CDK4/6 inhibitor used in this example was palbociclib administered at 130mg/kg once a day (QD). Palbociclib is 6-acetyl-8-cyclopentyl-5-methyl-2-[(5-piperazin-1-ylpyridin-2-yl)amino]pyrido[2,3-d]pyrimidin-7-one, and is sold as Ibrance® available from Pfizer Inc., New York, New York.

[5] = Day 0, MRTX1719 100 mg/kg PO QD
[6] = Day 2, MRTX1719 100 mg/kg PO QD
[7] = Day 5, MRTX1719 100 mg/kg PO QD
[8] = Day 9, MRTX1719 100 mg/kg PO QD
[9] = Day 12, MRTX1719 100 mg/kg PO QD
[10] = Day 16, MRTX1719 100 mg/kg PO QD
[11] = Day 20, MRTX1719 100 mg/kg PO QD
[12] = Day 1, MRTX1719 100 mg/kg PO QD
[13] = Day 8, MRTX1719 100 mg/kg PO QD
[14] = Day 15, MRTX1719 100 mg/kg PO QD
[15] = Day 19, MRTX1719 100 mg/kg PO QD
[16] = Day 22, MRTX1719 100 mg/kg PO QD
[17] = Day 26, MRTX1719 100 mg/kg PO QD
[18] = Day 29, MRTX1719 100 mg/kg PO QD
[19] = Day 34, MRTX1719 100 mg/kg PO QD
[20] = Day 3, MRTX1719 100 mg/kg PO QD
[21] = Day 7, MRTX1719 100 mg/kg PO QD
[22] = Day 10, MRTX1719 100 mg/kg PO QD
[23] = Day 14, MRTX1719 100 mg/kg PO QD
[24] = Day 17, MRTX1719 100 mg/kg PO QD
[25] = Day 13, MRTX1719 50 mg/kg PO QD
[26] = Day 16, MRTX1719 50 mg/kg PO QD
[27] = Day 20, MRTX1719 50 mg/kg PO QD

Question: How did the “Tumor Volume, Mean” value (HCC4006 xenograft tumors; [5]) turn out when Cn1ncc(-c2ccc3c(=O)[nH]nc(CN)c3c2)c1-c1c(F)c(Cl)cc(OC2CC2)c1C#N [MRTX1719, (2M)-2-(4-(4-(aminomethyl)-1-oxo-1,2-dihydrophthalazin-6-yl)-1-methyl-1H-pyrazol-5-y1)-4-chloro-6-cyclopropoxy-3-fluorobenzonitrile] was run?
Answer: 126 mm^3

Question: And the “Tumor Volume, Mean” value (HCC4006 xenograft tumors; [6])?
Answer: 150 mm^3

Question: What about the “Tumor Volume, Mean” value (HCC4006 xenograft tumors; [7]) of the same compound?
Answer: 159 mm^3

Question: And the “Tumor Volume, Mean” value (HCC4006 xenograft tumors; [8])?
Answer: 154 mm^3

Question: And the “Tumor Volume, Mean” value (HCC4006 xenograft tumors; [9])?
Answer: 156 mm^3

Question: And the “Tumor Volume, Mean” value (HCC4006 xenograft tumors; [10])?
Answer: 159 mm^3

Question: And the “Tumor Volume, Mean” value (HCC4006 xenograft tumors; [11])?
Answer: 78 mm^3

Question: And the “Tumor Volume, Mean” value [1, 12]?
Answer: 118 mm^3

Question: And the “Tumor Volume, Mean” value [1, 13]?
Answer: 169 mm^3

Question: What about the “Tumor Volume, Mean” value [1, 9] of the same compound?
Answer: 200 mm^3

Question: What about the “Tumor Volume, Mean” value [1, 14] of the same compound?
Answer: 210 mm^3

Question: And the “Tumor Volume, Mean” value [1, 15]?
Answer: 214 mm^3

Question: And the “Tumor Volume, Mean” value [1, 16]?
Answer: 221 mm^3

Question: What about the “Tumor Volume, Mean” value [1, 17] of the same compound?
Answer: 263 mm^3

Question: What about the “Tumor Volume, Mean” value [1, 18] of the same compound?
Answer: 288 mm^3

Question: What about the “Tumor Volume, Mean” value [1, 19] of the same compound?
Answer: 325 mm^3

Question: And the “Tumor Volume, Mean” value (H1650 xenograft tumors; [5])?
Answer: 146 mm^3

Question: And the “Tumor Volume, Mean” value (H1650 xenograft tumors; [20])?
Answer: 231 mm^3

Question: What about the “Tumor Volume, Mean” value (H1650 xenograft tumors; [21]) of the same compound?
Answer: 471 mm^3

Question: And the “Tumor Volume, Mean” value (H1650 xenograft tumors; [22])?
Answer: 599 mm^3

Question: And the “Tumor Volume, Mean” value (H1650 xenograft tumors; [23])?
Answer: 625 mm^3

Question: What about the “Tumor Volume, Mean” value (H1650 xenograft tumors; [24]) of the same compound?
Answer: 711 mm^3

Question: And the “Tumor Volume, Mean” value (H1650 xenograft tumors; [11])?
Answer: 635 mm^3

Question: What about the “Tumor Volume, Mean” value (MKN45 xenograft tumors; [5]) of the same compound?
Answer: 105 mm^3

Question: What about the “Tumor Volume, Mean” value (MKN45 xenograft tumors; [20]) of the same compound?
Answer: 165 mm^3

Question: And the “Tumor Volume, Mean” value (MKN45 xenograft tumors; [21])?
Answer: 207 mm^3

Question: And the “Tumor Volume, Mean” value (MKN45 xenograft tumors; [22])?
Answer: 221 mm^3

Question: And the “Tumor Volume, Mean” value (MKN45 xenograft tumors; [23])?
Answer: 214 mm^3

Question: What about the “Tumor Volume, Mean” value (MKN45 xenograft tumors; [24]) of the same compound?
Answer: 230 mm^3

Question: What about the “Tumor Volume, Mean” value (MKN45 xenograft tumors; [11]) of the same compound?
Answer: 221 mm^3

Question: What about the “Tumor Volume, Mean” value [2, 5] of the same compound?
Answer: 149 mm^3

Question: What about the “Tumor Volume, Mean” value [2, 20] of the same compound?
Answer: 382 mm^3

Question: What about the “Tumor Volume, Mean” value [2, 21] of the same compound?
Answer: 519 mm^3

Question: What about the “Tumor Volume, Mean” value [2, 22] of the same compound?
Answer: 559 mm^3

Question: What about the “Tumor Volume, Mean” value [2, 23] of the same compound?
Answer: 563 mm^3

Question: And the “Tumor Volume, Mean” value [2, 24]?
Answer: 624 mm^3

Question: And the “Tumor Volume, Mean” value [2, 11]?
Answer: 603 mm^3

Question: What about the “Tumor Volume, Mean” value (BXPC-3 xenograft tumors; Day 0, MRTX1719 50 mg/kg PO QD) of the same compound?
Answer: 122 mm^3

Question: And the “Tumor Volume, Mean” value (BXPC-3 xenograft tumors; Day 3, MRTX1719 50 mg/kg PO QD)?
Answer: 174 mm^3

Question: What about the “Tumor Volume, Mean” value (BXPC-3 xenograft tumors; Day 6, MRTX1719 50 mg/kg PO QD) of the same compound?
Answer: 206 mm^3

Question: And the “Tumor Volume, Mean” value (BXPC-3 xenograft tumors; Day 9, MRTX1719 50 mg/kg PO QD)?
Answer: 310 mm^3

Question: What about the “Tumor Volume, Mean” value (BXPC-3 xenograft tumors; [25]) of the same compound?
Answer: 359 mm^3

Question: And the “Tumor Volume, Mean” value (BXPC-3 xenograft tumors; [26])?
Answer: 372 mm^3

Question: And the “Tumor Volume, Mean” value (BXPC-3 xenograft tumors; [27])?
Answer: 368 mm^3

Question: Which results are given for CC(=O)c1c(C)c2cnc(Nc3ccc(N4CCNCC4)cn3)nc2n(C2CCCC2)c1=O [palbociclib, 6-acetyl-8-cyclopentyl-5-methyl-2-[(5-piperazin-1-ylpyridin-2-yl)amino]pyrido[2,3-d]pyrimidin-7-one]?
Answer: Tumor Volume, Mean (HCC4006 xenograft tumors; [5]): 127 mm^3; Tumor Volume, Mean (HCC4006 xenograft tumors; [6]): 155 mm^3; Tumor Volume, Mean (HCC4006 xenograft tumors; [7]): 143 mm^3; Tumor Volume, Mean (HCC4006 xenograft tumors; [8]): 117 mm^3; Tumor Volume, Mean (HCC4006 xenograft tumors; [9]): 115 mm^3; Tumor Volume, Mean (HCC4006 xenograft tumors; [10]): 111 mm^3; Tumor Volume, Mean (HCC4006 xenograft tumors; [11]): 100 mm^3; Tumor Volume, Mean [1, 12]: 118 mm^3; Tumor Volume, Mean [1, 7]: 134 mm^3; Tumor Volume, Mean [1, 13]: 155 mm^3; Tumor Volume, Mean [1, 9]: 177 mm^3; Tumor Volume, Mean [1, 14]: 189 mm^3; Tumor Volume, Mean [1, 15]: 179 mm^3; Tumor Volume, Mean [1, 16]: 186 mm^3; Tumor Volume, Mean [1, 17]: 220 mm^3; Tumor Volume, Mean [1, 18]: 255 mm^3; Tumor Volume, Mean [1, 19]: 263 mm^3; Tumor Volume ([3]; Day 1, MRTX7477 200 mg/kg PO BID): 209.8 mm^3; Tumor Volume ([3]; Day 5, MRTX7477 200 mg/kg PO BID): 215.9 mm^3; Tumor Volume ([3]; Day 8, MRTX7477 200 mg/kg PO BID): 277.3 mm^3; Tumor Volume ([3]; Day 12, MRTX7477 200 mg/kg PO BID): 359.4 mm^3; Tumor Volume ([3]; Day 15, MRTX7477 200 mg/kg PO BID): 413.5 mm^3; Tumor Volume ([3]; Day 19, MRTX7477 200 mg/kg PO BID): 675.9 mm^3; Tumor Volume ([3]; Day 21, MRTX7477 200 mg/kg PO BID): 827.0 mm^3; Tumor Volume ([3]; Day −2, MRTX7477 200 mg/kg PO BID): 133.4 mm^3; Tumor Volume, Mean (H1650 xenograft tumors; [5]): 147 mm^3; Tumor Volume, Mean (H1650 xenograft tumors; [20]): 268 mm^3; Tumor Volume, Mean (H1650 xenograft tumors; [21]): 356 mm^3; Tumor Volume, Mean (H1650 xenograft tumors; [22]): 493 mm^3; Tumor Volume, Mean (H1650 xenograft tumors; [23]): 480 mm^3; Tumor Volume, Mean (H1650 xenograft tumors; [24]): 589 mm^3; Tumor Volume, Mean (H1650 xenograft tumors; [11]): 743 mm^3; Tumor Volume, Mean (MKN45 xenograft tumors; [5]): 106 mm^3; Tumor Volume, Mean (MKN45 xenograft tumors; [20]): 158 mm^3; Tumor Volume, Mean (MKN45 xenograft tumors; [21]): 236 mm^3; Tumor Volume, Mean (MKN45 xenograft tumors; [22]): 264 mm^3; Tumor Volume, Mean (MKN45 xenograft tumors; [23]): 330 mm^3; Tumor Volume, Mean (MKN45 xenograft tumors; [24]): 434 mm^3; Tumor Volume, Mean (MKN45 xenograft tumors; [11]): 474 mm^3; Tumor Volume, Mean ([4]; Day 0, MRTX9768 100 mg/kg PO BID): 184.39 mm^3; Tumor Volume, Mean ([4]; Day 3, MRTX9768 100 mg/kg PO BID): 247.02 mm^3; Tumor Volume, Mean ([4]; Day 7, MRTX9768 100 mg/kg PO BID): 355.77 mm^3; Tumor Volume, Mean ([4]; Day 10, MRTX9768 100 mg/kg PO BID): 482.60 mm^3; Tumor Volume, Mean ([4]; Day 14, MRTX9768 100 mg/kg PO BID): 731.56 mm^3; Tumor Volume, Mean ([4]; Day 17, MRTX9768 100 mg/kg PO BID): 914.41 mm^3; Tumor Volume, Mean ([4]; Day 21, MRTX9768 100 mg/kg PO BID): 1148.44 mm^3; Tumor Volume, Mean [2, 5]: 149 mm^3; Tumor Volume, Mean [2, 20]: 319 mm^3; Tumor Volume, Mean [2, 21]: 365 mm^3; Tumor Volume, Mean [2, 22]: 378 mm^3; Tumor Volume, Mean [2, 23]: 341 mm^3; Tumor Volume, Mean [2, 24]: 391 mm^3; Tumor Volume, Mean [2, 11]: 350 mm^3; Tumor Volume, Mean (BXPC-3 xenograft tumors; Day 0, MRTX1719 50 mg/kg PO QD): 122 mm^3; Tumor Volume, Mean (BXPC-3 xenograft tumors; Day 3, MRTX1719 50 mg/kg PO QD): 162 mm^3; Tumor Volume, Mean (BXPC-3 xenograft tumors; Day 6, MRTX1719 50 mg/kg PO QD): 174 mm^3; Tumor Volume, Mean (BXPC-3 xenograft tumors; Day 9, MRTX1719 50 mg/kg PO QD): 187 mm^3; Tumor Volume, Mean (BXPC-3 xenograft tumors; [25]): 195 mm^3; Tumor Volume, Mean (BXPC-3 xenograft tumors; [26]): 190 mm^3; Tumor Volume, Mean (BXPC-3 xenograft tumors; [27]): 193 mm^3
